Assay results as given in PubChem BioAssay AID248 (DTP/NCI, 2004).
Toxic doses and inconclusive results are not listed.

Tested on: L1210 leukemia ip in BDF1 mice, survival T/C
Assay: NCI In Vivo Anticancer Drug Screen. Data for tumor model L1210 Leukemia (intraperitoneal) in B6D2F1 (BDF1) mice
Conditions: endpoint: mean survival time, higher = longer survival
How it was run: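 Value reflects the ratio of survival in compound-treated mice to survival in vehicle-treated controls, with both groups carrying the same transplanted tumor.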

[1] = dose: 100.0 mg/kg/injection, schedule: Q01DX009 (ip), vehicle: Klucel (hydroxypropylcellulose) (HPC)
[2] = dose: 100.0 mg/kg/injection, schedule: Q04DX003 (ip), vehicle: Klucel (hydroxypropylcellulose) (HPC)
[3] = dose: 200.0 mg/kg/injection, schedule: Q01DX009 (ip), vehicle: Klucel (hydroxypropylcellulose) (HPC)
[4] = dose: 200.0 mg/kg/injection, schedule: Q04DX003 (ip), vehicle: Klucel (hydroxypropylcellulose) (HPC)
[5] = dose: 400.0 mg/kg/injection, schedule: Q04DX003 (ip), vehicle: Klucel (hydroxypropylcellulose) (HPC)
[6] = dose: 100.0 mg/kg/injection, schedule: Q04DX003 (ip), vehicle: saline
[7] = dose: 200.0 mg/kg/injection, schedule: Q04DX003 (ip), vehicle: saline
[8] = dose: 400.0 mg/kg/injection, schedule: Q04DX003 (ip), vehicle: saline
[9] = dose: 100.0 mg/kg/injection, schedule: Q01DX001 (ip), vehicle: Klucel (hydroxypropylcellulose) (HPC)
[10] = dose: 200.0 mg/kg/injection, schedule: Q01DX001 (ip), vehicle: Klucel (hydroxypropylcellulose) (HPC)
[11] = dose: 400.0 mg/kg/injection, schedule: Q01DX001 (ip), vehicle: Klucel (hydroxypropylcellulose) (HPC)
[12] = dose: 400.0 mg/kg/injection, schedule: Q01DX001 (ip), vehicle: saline with Tween-80
[13] = dose: 100.0 mg/kg/injection, schedule: Q01DX001 (ip), vehicle: carboxymethylcellulose (CMC)
[14] = dose: 200.0 mg/kg/injection, schedule: Q01DX001 (ip), vehicle: carboxymethylcellulose (CMC)
[15] = dose: 400.0 mg/kg/injection, schedule: Q01DX001 (ip), vehicle: carboxymethylcellulose (CMC)
[16] = dose: 400.0 mg/kg/injection, schedule: Q01DX009 (ip), vehicle: Klucel (hydroxypropylcellulose) (HPC)

`CCCCCCCCCCCCC/C=C\C(=O)N(CCCCN(C)C)CCCCN(C)C` was tested, and the T/C (dose: 2.0 mg/kg/injection, schedule: Q01DX009 (ip), vehicle: carboxymethylcellulose (CMC)) was 107 % of control, the T/C (dose: 4.0 mg/kg/injection, schedule: Q01DX009 (ip), vehicle: carboxymethylcellulose (CMC)) was 104 % of control and the T/C (dose: 6.0 mg/kg/injection, schedule: Q01DX009 (ip), vehicle: carboxymethylcellulose (CMC)) was 101 % of control. The T/C (dose: 8.0 mg/kg/injection, schedule: Q01DX009 (ip), vehicle: carboxymethylcellulose (CMC)) was 103 % of control and the T/C (dose: 10.0 mg/kg/injection, schedule: Q01DX009 (ip), vehicle: carboxymethylcellulose (CMC)) was 90 % of control.

For `c1cc2c(c(NC3=NCCCS3)c1)CCCC2`, the T/C [1] was 102 % of control, the T/C [2] was 97 % of control and the T/C [3] was 96 % of control. For the same compound, the T/C [4] was 95 % of control and the T/C [5] was 90 % of control.

With `Cc1c(C)c([N+](=O)[O-])c(/C=C/C(=O)O)c(C)c1[N+](=O)[O-]` the T/C [2] was 97 % of control and the T/C [4] was 86 % of control.

`CC(C)CC(NC(=O)CN)C(=O)O` (configuration not stated) was tested, and the T/C [6] was 107 % of control, the T/C [7] was 104 % of control and the T/C [8] was 107 % of control.

With `CC1COC(Nc2cccc3c2CCCC3)=N1` (configuration not stated) the T/C (dose: 12.5 mg/kg/injection, schedule: Q01DX009 (ip), vehicle: saline with Tween-80) was 103 % of control, the T/C (dose: 25.0 mg/kg/injection, schedule: Q01DX009 (ip), vehicle: saline with Tween-80) was 92 % of control and the T/C (dose: 50.0 mg/kg/injection, schedule: Q01DX009 (ip), vehicle: saline with Tween-80) was 90 % of control.

In the case of `CCOC(=O)c1c(/N=C/c2ccc(N(C)C)cc2)sc2c1CCCC2`, the T/C (dose: 100.0 mg/kg/injection, schedule: Q04DX002 (ip), vehicle: Klucel (hydroxypropylcellulose) (HPC)) was 107 % of control, the T/C (dose: 200.0 mg/kg/injection, schedule: Q04DX002 (ip), vehicle: Klucel (hydroxypropylcellulose) (HPC)) was 100 % of control and the T/C (dose: 400.0 mg/kg/injection, schedule: Q04DX002 (ip), vehicle: Klucel (hydroxypropylcellulose) (HPC)) was 104 % of control.

`CC(=O)OC1C=CN(C(C)=O)C(SC23CC4CC(CC(C4)C2)C3)C1OC(C)=O` (configuration not stated) was tested, and the T/C [2] was 92 % of control, the T/C [4] was 100 % of control and the T/C [5] was 92 % of control.

In the case of `CN(C1CCCC1)C1CCCC1`, the T/C (dose: 10.0 mg/kg/injection, schedule: Q01DX009 (ip), vehicle: Klucel (hydroxypropylcellulose) (HPC)) was 106 % of control, the T/C (dose: 10.0 mg/kg/injection, schedule: Q04DX003 (ip), vehicle: Klucel (hydroxypropylcellulose) (HPC)) was 102 % of control and the T/C (dose: 20.0 mg/kg/injection, schedule: Q01DX009 (ip), vehicle: Klucel (hydroxypropylcellulose) (HPC)) was 104 % of control. For the same compound, the T/C (dose: 20.0 mg/kg/injection, schedule: Q04DX003 (ip), vehicle: Klucel (hydroxypropylcellulose) (HPC)) was 94 % of control, the T/C (dose: 40.0 mg/kg/injection, schedule: Q01DX009 (ip), vehicle: Klucel (hydroxypropylcellulose) (HPC)) was 102 % of control and the T/C (dose: 40.0 mg/kg/injection, schedule: Q04DX003 (ip), vehicle: Klucel (hydroxypropylcellulose) (HPC)) was 96 % of control.

For `Nc1cccc(CCCCc2ccc(Cl)cc2Cl)c1`, the T/C [9] was 97 % of control, the T/C [10] was 96 % of control and the T/C [11] was 102 % of control.

In the case of `CC(=O)Oc1c2ccccc2c2c3c(cccc13)C(=O)O2`, the T/C [9] was 95 % of control, the T/C [10] was 95 % of control and the T/C [11] was 95 % of control.

`CN(C)c1ccc(NC(=S)Nc2ccc(N(C)C)cc2)cc1` was tested, and the T/C [12] was 88 % of control.

With `CC1=Nc2ccccc2NC(C)(C)C1` the T/C (dose: 100.0 mg/kg/injection, schedule: Q04DX002 (ip), vehicle: saline) was 102 % of control, the T/C [2] was 100 % of control and the T/C (dose: 200.0 mg/kg/injection, schedule: Q04DX002 (ip), vehicle: saline) was 102 % of control. For the same compound, the T/C [4] was 98 % of control and the T/C [5] was 98 % of control.

With `CCc1ccc2c(OC(C)=O)c3ccccc3c(OC(C)=O)c2c1` the T/C (dose: 100.0 mg/kg/injection, schedule: Q01DX001 (ip), vehicle: saline with Tween-80) was 95 % of control, the T/C (dose: 200.0 mg/kg/injection, schedule: Q01DX001 (ip), vehicle: saline with Tween-80) was 95 % of control and the T/C [12] was 93 % of control.

In the case of `CSc1nc(N)c(N=Nc2ccc(S(=O)(=O)Nc3nccs3)cc2)c(=O)[nH]1`, the T/C [13] was 92 % of control, the T/C [14] was 92 % of control and the T/C [15] was 92 % of control.

For `CCOc1ccc(Br)cc1C1N(Cc2ccc(N(CCCl)CCCl)cc2C)CCCN1Cc1ccc(N(CCCl)CCCl)cc1C`, the T/C [13] was 106 % of control, the T/C [14] was 101 % of control and the T/C [15] was 108 % of control.

In the case of `CCOC(=O)C1=NNC(C(C)=O)(C(=O)OCC)C1CC` (configuration not stated), the T/C [1] was 102 % of control, the T/C [3] was 95 % of control and the T/C [16] was 96 % of control.

`COC(=O)c1ccccc1N=NNc1ccc(C(F)(F)F)c([N+](=O)[O-])c1` was tested, and the T/C (dose: 100.0 mg/kg/injection, schedule: Q04DX003 (ip), vehicle: saline with Tween-80) was 98 % of control, the T/C (dose: 200.0 mg/kg/injection, schedule: Q04DX003 (ip), vehicle: saline with Tween-80) was 103 % of control and the T/C (dose: 400.0 mg/kg/injection, schedule: Q04DX003 (ip), vehicle: saline with Tween-80) was 88 % of control.

`CN1CCN=C1c1ccc(NC(=O)Nc2ccc(NC(=O)Nc3ccc(C4=NCCN4C)cc3)cc2)cc1` was tested, and the T/C (dose: 6.5 mg/kg/injection, schedule: Q01DX009 (ip), vehicle: other) was 108 % of control, the T/C (dose: 10.0 mg/kg/injection, schedule: Q01DX009 (ip), vehicle: other) was 105 % of control and the T/C (dose: 15.0 mg/kg/injection, schedule: Q01DX009 (ip), vehicle: other) was 118 % of control. The T/C (dose: 22.0 mg/kg/injection, schedule: Q01DX009 (ip), vehicle: other) was 118 % of control, the T/C (dose: 33.0 mg/kg/injection, schedule: Q01DX009 (ip), vehicle: other) was 162 % of control and the T/C (dose: 50.0 mg/kg/injection, schedule: Q01DX009 (ip), vehicle: other) was 227 % of control. The T/C (dose: 50.0 mg/kg/injection, schedule: Q01DX009 (ip), vehicle: saline) was 191 % of control, the T/C (dose: 75.0 mg/kg/injection, schedule: Q01DX001 (ip), vehicle: other) was 109 % of control and the T/C (dose: 75.0 mg/kg/injection, schedule: Q01DX009 (ip), vehicle: other) was 204 % of control. For the same compound, the T/C (dose: 75.0 mg/kg/injection, schedule: Q01DX009 (ip), vehicle: saline) was 191 % of control, the T/C (dose: 112.0 mg/kg/injection, schedule: Q01DX009 (ip), vehicle: other) was 111 % of control and the T/C (dose: 112.0 mg/kg/injection, schedule: Q01DX009 (ip), vehicle: saline) was 197 % of control. The T/C (dose: 150.0 mg/kg/injection, schedule: Q01DX001 (ip), vehicle: other) was 124 % of control.

For `COc1cc(OC)cc(C(=O)N2CC2)c1`, the T/C (dose: 25.0 mg/kg/injection, schedule: Q01DX009 (ip), vehicle: water) was 100 % of control and the T/C (dose: 50.0 mg/kg/injection, schedule: Q01DX009 (ip), vehicle: water) was 88 % of control.

For `CN(C)C(=O)/C=C/C(=O)N(C)C`, the T/C [6] was 103 % of control, the T/C [7] was 103 % of control and the T/C [8] was 108 % of control.

For `Cc1ccc(S(=O)(=O)CC(=O)c2ccccc2)cc1`, the T/C [2] was 100 % of control, the T/C [4] was 107 % of control and the T/C [5] was 102 % of control.

For `CNC(=O)Nc1nnc(C)s1`, the T/C [1] was 98 % of control, the T/C [3] was 106 % of control and the T/C [16] was 114 % of control.

With `Cc1ccc(NS(=O)(=O)c2ccc(Cl)cc2)cc1Cl` the T/C (dose: 25.0 mg/kg/injection, schedule: Q01DX009 (ip), vehicle: Klucel (hydroxypropylcellulose) (HPC)) was 94 % of control, the T/C (dose: 50.0 mg/kg/injection, schedule: Q01DX009 (ip), vehicle: Klucel (hydroxypropylcellulose) (HPC)) was 99 % of control and the T/C [1] was 96 % of control. The T/C [2] was 106 % of control, the T/C [3] was 99 % of control and the T/C [4] was 96 % of control. For the same compound, the T/C [16] was 88 % of control and the T/C [5] was 100 % of control.

In the case of `O=C(O)Cc1cc2c(cc1I)OCO2`, the T/C (dose: 100.0 mg/kg/injection, schedule: Q01DX009 (ip), vehicle: saline with Tween-80) was 98 % of control, the T/C (dose: 200.0 mg/kg/injection, schedule: Q01DX009 (ip), vehicle: saline with Tween-80) was 104 % of control and the T/C (dose: 400.0 mg/kg/injection, schedule: Q01DX009 (ip), vehicle: saline with Tween-80) was 109 % of control.
